Experimental findings from ChEMBL document CHEMBL1151106, “Chemical studies on mexican plants used in traditional medicine, VI. Additional new 4-phenylcoumarins from Exostema caribaeum” (1988) are described below.

SMILES strings stand for the structures. Values after ≈ are worked out from the molar mass of the structure shown. Active and inactive are the calls of the source. No cut-off for these calls is given here.

One may read the MIC as the least concentration at which growth counts as inhibited.

The test system of this test is Candida albicans. Briefly: Antifungal activity against Candida albicans. The format is functional.
For the compound `COc1cc2c3c(cc(=O)oc3c1)-c1cc(O)c(OC)cc1O2`, the result was inactive. The same measure, in the same setting: next, `COc1ccc(-c2cc(=O)oc3cc(OC)cc(O[C@@H]4O[C@H](CO)[C@H](O)[C@H](O)[C@H]4O)c23)cc1`: “Active”; `COc1cc(O)c2c(-c3ccc(OC)c(O)c3)cc(=O)oc2c1`: “Active”. With `COc1cc(O[C@@H]2O[C@H](CO)[C@H](O)[C@H](O)[C@H]2O)c2c(-c3ccc(O)c(O)c3)cc(=O)oc2c1`, the MIC was 12.5 µg/mL (≈ 27 µM).

For the compound `COc1cc(O)c2c(-c3ccc(O)c(O)c3)cc(=O)oc2c1`, the outcome was inactive.

On to `COc1cc(O[C@@H]2O[C@H](COC(C)=O)[C@H](O)[C@H](O)[C@H]2O)c2c(-c3ccc(O)c(O)c3)cc(=O)oc2c1`, for which the result was Active.

As for `COc1cc(O[C@@H]2O[C@H](CO)[C@@H](O)[C@H](O)[C@H]2O)c2c(-c3ccc(O)c(O)c3)cc(=O)oc2c1`, the outcome was Active.
